Experimental findings from patent US8791107B2, “N-substituted oxazinopteridines and oxazinopteridinones” (Takeda Pharmaceutical Company Limited, priority 2011, dated 2014) are described below.

Molecules are shown by their SMILES.

The target in this experiment is T1, PI3Kδ (Homo sapiens, UniProt O00329).
T1 construct: The protein is full length and co-expressed with untagged PIK3R1; GST; purchased Invitrogen PV5274
T1 sequence (O00329 whole entry): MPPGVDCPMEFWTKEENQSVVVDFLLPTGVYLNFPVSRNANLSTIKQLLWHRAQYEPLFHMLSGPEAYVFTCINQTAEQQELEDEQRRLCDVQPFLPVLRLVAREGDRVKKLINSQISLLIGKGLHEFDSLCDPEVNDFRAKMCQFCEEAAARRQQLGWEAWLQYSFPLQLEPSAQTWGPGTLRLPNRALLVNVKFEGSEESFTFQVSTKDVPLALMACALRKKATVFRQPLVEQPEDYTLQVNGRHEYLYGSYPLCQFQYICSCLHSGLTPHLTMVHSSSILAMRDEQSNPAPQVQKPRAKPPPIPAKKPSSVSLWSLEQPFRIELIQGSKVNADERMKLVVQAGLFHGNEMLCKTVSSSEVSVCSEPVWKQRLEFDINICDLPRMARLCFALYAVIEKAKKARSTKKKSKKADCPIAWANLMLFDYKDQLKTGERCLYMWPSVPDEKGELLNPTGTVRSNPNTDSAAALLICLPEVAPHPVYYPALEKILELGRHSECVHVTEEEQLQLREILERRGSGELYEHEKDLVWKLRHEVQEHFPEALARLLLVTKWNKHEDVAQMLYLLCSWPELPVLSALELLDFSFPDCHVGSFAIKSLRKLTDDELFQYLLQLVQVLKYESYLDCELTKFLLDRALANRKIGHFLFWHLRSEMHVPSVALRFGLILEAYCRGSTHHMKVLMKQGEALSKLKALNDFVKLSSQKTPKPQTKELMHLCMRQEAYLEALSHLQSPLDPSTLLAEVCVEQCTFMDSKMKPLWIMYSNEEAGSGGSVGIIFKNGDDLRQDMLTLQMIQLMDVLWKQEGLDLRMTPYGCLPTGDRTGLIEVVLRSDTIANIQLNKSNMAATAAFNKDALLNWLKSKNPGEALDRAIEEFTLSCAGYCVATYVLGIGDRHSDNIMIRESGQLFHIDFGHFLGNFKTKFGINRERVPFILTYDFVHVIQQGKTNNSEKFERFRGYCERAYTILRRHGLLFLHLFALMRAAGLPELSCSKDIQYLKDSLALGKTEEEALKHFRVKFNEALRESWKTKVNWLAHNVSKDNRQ
T1 sequence (P27986 whole entry partner): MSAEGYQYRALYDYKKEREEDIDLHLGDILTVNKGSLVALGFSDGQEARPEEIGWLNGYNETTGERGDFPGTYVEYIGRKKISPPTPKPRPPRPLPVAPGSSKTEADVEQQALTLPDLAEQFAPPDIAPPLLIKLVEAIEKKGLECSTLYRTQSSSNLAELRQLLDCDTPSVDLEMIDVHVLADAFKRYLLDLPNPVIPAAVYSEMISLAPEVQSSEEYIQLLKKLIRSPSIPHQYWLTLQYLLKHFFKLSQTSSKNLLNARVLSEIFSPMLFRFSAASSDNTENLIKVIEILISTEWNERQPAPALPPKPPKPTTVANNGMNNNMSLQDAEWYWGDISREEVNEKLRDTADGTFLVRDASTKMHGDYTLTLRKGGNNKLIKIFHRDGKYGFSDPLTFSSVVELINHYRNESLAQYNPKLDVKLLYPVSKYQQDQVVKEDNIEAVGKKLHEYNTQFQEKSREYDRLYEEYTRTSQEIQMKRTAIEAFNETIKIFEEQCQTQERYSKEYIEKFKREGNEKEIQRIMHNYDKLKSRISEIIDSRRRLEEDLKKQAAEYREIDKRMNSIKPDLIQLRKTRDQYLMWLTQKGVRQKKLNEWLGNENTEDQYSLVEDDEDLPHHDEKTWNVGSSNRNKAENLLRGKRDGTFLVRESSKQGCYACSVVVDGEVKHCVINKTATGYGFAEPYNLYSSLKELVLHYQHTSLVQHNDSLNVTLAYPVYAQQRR
Description: PI3Kδ inhibition, modified PIK3CD Adapta TR-FRET assay. The note with it: recombinant GST-tagged full length PIK3CD co-expressed with PIK3R1 (p85α); 2 μM ATP, 50 μM PIP2; read-out: PI3Kδ Inhibition (pIC50) (converted). Type of experiment: biochemical. In outline:
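Inhibition was derived from % conversion against positive and negative controls, with ADP read by Adapta Eu-antibody/tracer TR-FRET. Room-temperature reactions used GST-PIK3CD/p85α in HEPES pH 7.5 buffer (MgCl2, EGTA, NaCl, CHAPS, fresh DTT), 1% DMSO final and 12 concentrations. They were initiated by adding 2 μM ATP/50 μM PIP2 solution.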
A general note: In TR-FRET formats the signal depends on donor and acceptor labels being close together.
As for `CC(=O)Nc1ccc(-c2ncc3c(n2)N2CCOC[C@H]2CN3CC(=O)NCC2CCOCC2)cc1` [Example 224, (R)-2-(2-(4-acetamidophenyl)-6a,7,9,10-tetrahydro-[1,4]oxazino[3,4-h]pteridin-5(6H)-yl)-N-((tetrahydro-2H-pyran-4-yl)methyl)acetamide], the IC50 is 0.316 µM.
Then `Cn1nccc1-c1ncc2c(n1)N1CCOC[C@H]1CN2CC(=O)NCC1CCOCC1` [Example 225, (R)-2-(2-(1-methyl-1H-pyrazol-5-yl)-6a,7,9,10-tetrahydro-[1,4]oxazino[3,4-h]pteridin-5(6H)-yl)-N-((tetrahydro-2H-pyran-4-yl)methyl)acetamide], with 1.58 µM.
Then `O=C(CN1C[C@@H]2COCCN2c2nc(-c3ccc(CO)s3)ncc21)NCC1CCOCC1` [Example 226, (R)-2-(2-(5-(hydroxymethyl)thiophen-2-yl)-6a,7,9,10-tetrahydro-[1,4]oxazino[3,4-h]pteridin-5(6H)-yl)-N-((tetrahydro-2H-pyran-4-yl)methyl)acetamide], with 0.501 µM.
`CC(C)(O)CCCN1C[C@@H]2COCCN2c2nc(-c3cccc4[nH]ccc34)ncc21` [Example 227, (R)-5-(2-(1H-indol-4-yl)-6a,7,9,10-tetrahydro-[1,4]oxazino[3,4-h]pteridin-5(6H)-yl)-2-methylpentan-2-ol]: the IC50 was 0.0158 µM.
With `Cc1ccc(C(N)=O)c(CN2CC3COCCN3c3nc(-c4cccc5[nH]ccc45)ncc32)c1` (stereo not drawn) [Example 228, 2-((2-(1H-indol-4-yl)-6a,7,9,10-tetrahydro-[1,4]oxazino[3,4-h]pteridin-5(6H)-yl)methyl)-4-methylbenzamide], the IC50 is 0.158 µM.
With `O=C(Nc1ccc(-c2ncc3c(n2)N2CCOCC2C(=O)N3C2CCOCC2)cc1)NC1CC1` (stereo not drawn) [Example 229, 1-cyclopropyl-3-(4-(6-oxo-5-(tetrahydro-2H-pyran-4-yl)-5,6,6a,7,9,10-hexahydro-[1,4]oxazino[3,4-h]pteridin-2-yl)phenyl)urea], the IC50 was 0.0316 µM.
